# Experimental data reported in ChEMBL document CHEMBL1153593, “Recent developments in the design and synthesis of hybrid molecules based on aminoquinoline ring and their antiplasmodial evaluation” (Eur J Med Chem, 2009).
# Legend:
# Plasmodium yoelii [1] = experiment: Antimalarial activity as reduced parasitaemia at day 4 against Plasmodium yoelii N67 infected Swiss mice (Mus musculus) compared to chloroquine; type: functional, N-67; design: concentration or dose not given beside the values; scale not given: the % may be the effect or the level left
# Plasmodium falciparum [2] = experiment: Antimalarial activity against Plasmodium falciparum NF54; conditions: NF-54
# Plasmodium yoelii [3] = experiment: Antimalarial activity as mean survival time against Plasmodium yoelii N67 infected Swiss mice (Mus musculus); type: functional, N-67
# Plasmodium falciparum [4] = experiment: Antimalarial activity against chloroquine-resistant Plasmodium falciparum Dd2; type: functional, organism-based
# Plasmodium falciparum [5] = experiment: Antimalarial activity against chloroquine-resistant Plasmodium falciparum W2; type: functional, organism-based
# Plasmodium falciparum [6] = experiment: Antimalarial activity against Plasmodium falciparum 3D7; type: functional, organism-based
# Plasmodium falciparum [7] = experiment: Antimalarial activity against chloroquine-resistant Plasmodium falciparum FcB1; type: functional, organism-based
# Plasmodium falciparum [8] = experiment: Antimalarial activity against Plasmodium falciparum THAI; type: functional, organism-based
# Plasmodium falciparum [9] = experiment: Antimalarial activity against chloroquine-resistant Plasmodium falciparum K1; type: functional, organism-based
# Plasmodium falciparum [10] = experiment: microbe, parasite or virus in culture; conditions: D10
# Plasmepsin II = Plasmepsin II (Plasmodium falciparum, UniProt P46925); experiment: Inhibition of Plasmodium falciparum plasmepsin-2
# Plasmodium falciparum [11] = experiment: Antimalarial activity against Plasmodium falciparum FcB1R; conditions: read-out: ED50 (the source's name)
# Plasmodium berghei [12] = experiment: Gametocytocidal activity as infected mosquitoes against Plasmodium berghei at 10 uM/kg; type: functional
# [13] = Stability assessed as hydrolysis to metabolite in presence of 80% human plasma; type: ADME, cell-free
# Plasmodium berghei [14] = experiment: Gametocytocidal activity as oocysts per mosquito against Plasmodium berghei; type: functional
# Plasmodium falciparum [15] = experiment: Antimalarial activity against chloroquine-resistant Plasmodium falciparum W2 at 9 uM; type: functional
# Plasmodium falciparum [16] = experiment: Antimalarial activity against chloroquine-sensitive Plasmodium falciparum D10 at 9 uM; type: functional
# Plasmodium falciparum [17] = experiment: Antimalarial activity as relative mean survival time against Plasmodium falciparum at 40 mg/kg for 4 days; type: functional; conditions: 96 h
# Plasmodium falciparum [18] = experiment: Antimalarial activity against Plasmodium falciparum FcB1/Columbia erythrocytes […]; type: functional, organism-based
# [19] = Cytotoxicity against human MRC5 cells; type: cell-based; conditions: read-out: CD50 (the source's name)
# [20] = Selectivity index, ratio of CD50 for human MRC5 cells to IC50 for Plasmodium falciparum FcB1/Columbia erythrocytes; type: functional
# Plasmodium falciparum [21] = experiment: Antimalarial activity against chloroquine-resistant Plasmodium falciparum TM91C235; type: functional, organism-based
# Plasmodium falciparum [22] = experiment: Antimalarial activity against chloroquine-sensitive Plasmodium falciparum D6; type: functional, organism-based
# Homo sapiens = species: Homo sapiens; experiment: (§1) Terminal half life in human; type: ADME, organism-based; conditions: in vivo
# [23] = as §1; type: ADME, organism-based; conditions: in vivo, read-out: beta t1/2 (converted)
# Plasmepsin II, sequence (P46925 whole entry): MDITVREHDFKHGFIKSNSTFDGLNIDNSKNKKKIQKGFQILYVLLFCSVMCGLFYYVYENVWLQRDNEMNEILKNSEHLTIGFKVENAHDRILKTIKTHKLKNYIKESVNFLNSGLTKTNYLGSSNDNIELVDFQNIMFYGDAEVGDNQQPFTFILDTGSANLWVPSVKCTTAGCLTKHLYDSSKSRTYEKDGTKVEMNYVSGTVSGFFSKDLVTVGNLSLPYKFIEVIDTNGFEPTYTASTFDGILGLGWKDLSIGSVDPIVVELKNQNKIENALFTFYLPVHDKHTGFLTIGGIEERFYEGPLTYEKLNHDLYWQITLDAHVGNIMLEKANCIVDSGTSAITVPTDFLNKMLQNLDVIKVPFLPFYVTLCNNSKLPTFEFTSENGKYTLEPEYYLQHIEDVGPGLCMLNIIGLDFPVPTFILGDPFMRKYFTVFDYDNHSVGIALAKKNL
smiles,measurement,setting,value
O=C1CCSC(c2ccc(Cl)cc2)N1CCNc1ccnc2cc(Cl)ccc12 (stereo not drawn),Activity,Plasmodium yoelii [1],81%
same,IC50,Plasmodium falciparum [2],13 nM
same,MIC,Plasmodium falciparum [2],0.26 µM
same,Survival,Plasmodium yoelii [3],15.2 days
Clc1ccc2c(NCCCN(CCc3ccccc3)Cc3ncc[nH]3)ccnc2c1,IC50,Plasmodium falciparum [4],150 nM
same,IC50,Plasmodium falciparum [5],130 nM
same,IC50,Plasmodium falciparum [6],50 nM
O=C1c2ccccc2SC(c2ccc(Cl)cc2)N1CCCNc1ccnc2cc(Cl)ccc12 (stereo not drawn),Activity,Plasmodium yoelii [1],40.08%
same,IC50,Plasmodium falciparum [2],138 nM
same,MIC,Plasmodium falciparum [2],0.27 µM
same,Survival,Plasmodium yoelii [3],10.6 days
O=C(CN1CCCCC1)Nc1cc(CN2CCCCC2)cc(Nc2ccnc3ccc(Cl)cc23)c1,IC50,Plasmodium falciparum [7],10 nM
same,IC50,Plasmodium falciparum [8],6.7 nM
same,IC50,Plasmodium falciparum [9],8.1 nM
CCCCNC(=O)C[C@H](O)[C@H](CC(C)C)NC(=O)[C@@H](NC(=O)Cc1ccc2cc(CC(=O)N[C@H](C(=O)N[C@H](CCCCN)C(=O)NCCCC(C)Nc3cc(OC)cc4cccnc34)C(C)C)ccc2c1)[C@H](C)CC (stereo partly drawn),IC50,Plasmodium falciparum [5],4700 nM
same,IC50,Plasmodium falciparum [10],6200 nM
same,IC50,Plasmepsin II,1510 nM
CCCCNC(=O)C[C@H](O)[C@H](CC(C)C)NC(=O)[C@@H](NC(=O)Cc1ccc2cc(C(=O)OCCCC(=O)N[C@H](C(=O)N[C@H](CCCCN)C(=O)NCCCC(C)Nc3cc(OC)cc4cccnc34)C(C)C)ccc2c1)[C@H](C)CC (stereo partly drawn),IC50,Plasmodium falciparum [5],1000 nM
same,IC50,Plasmodium falciparum [10],3300 nM
same,IC50,Plasmepsin II,9600 nM
O=C(CN1CCCCC1)Nc1cc(COC(=O)CCC2=CC(=O)c3ccccc3C2=O)cc(Nc2ccnc3ccc(Cl)cc23)c1,EC50,Plasmodium falciparum [11],23 nM
O=C(CN1CCCCC1)Nc1cc(CN2CCN(c3ccccc3)CC2)cc(Nc2ccnc3ccc(Cl)cc23)c1,IC50,Plasmodium falciparum [7],5.5 nM
COc1cc(NC(C)CCCN2C(=O)[C@@H](Cc3ccccc3)NC23CCCCCC3)c2ncccc2c1 (stereo partly drawn),Activity,Plasmodium berghei [12],90%
same,Stability,[13],Stable
same,Activity,Plasmodium berghei [14],78.9
COc1cc(NC(C)CCCN2C(=O)[C@@H](C(C)C)NC2(C)C)c2ncccc2c1 (stereo partly drawn),Activity,Plasmodium berghei [12],25%
same,Stability,[13],Stable
same,Activity,Plasmodium berghei [14],5
COc1ccc(CNCc2cc(NC(=O)CN3CCCCC3)cc(Nc3ccnc4ccc(Cl)cc34)c2)cc1,IC50,Plasmodium falciparum [7],4.4 nM
CCCCN(CCCNc1ccnc2cc(Cl)ccc12)Cc1ccsc1,IC50,Plasmodium falciparum [4],45 nM
same,IC50,Plasmodium falciparum [5],50 nM
same,IC50,Plasmodium falciparum [6],50 nM
CCCCNC(=O)C[C@H](O)[C@H](CC(C)C)NC(=O)[C@@H](NC(=O)CCC(=O)N[C@H](C(=O)N[C@H](CCCCN)C(=O)NCCCC(C)Nc1cc(OC)cc2cccnc12)C(C)C)[C@H](C)CC (stereo partly drawn),Activity,Plasmodium falciparum [15],40%
same,Activity,Plasmodium falciparum [16],20%
same,IC50,Plasmepsin II,396000 nM
O=C1c2ccccc2SC(c2c(Cl)cccc2Cl)N1CCCNc1ccnc2cc(Cl)ccc12 (stereo not drawn),Activity,Plasmodium yoelii [1],23.5%
same,IC50,Plasmodium falciparum [2],14 nM
same,MIC,Plasmodium falciparum [2],0.28 µM
same,Survival,Plasmodium yoelii [3],13.8 days
O=C(CN1CCCCC1)Nc1cc(COC(=O)CCCCCC2=CC(=O)c3ccccc3C2=O)cc(Nc2ccnc3ccc(Cl)cc23)c1,EC50,Plasmodium falciparum [11],23 nM
same,survival at 40 mg/kg,Plasmodium falciparum [17],178%
CCCCN(CCCNc1ccnc2cc(Cl)ccc12)Cc1ccoc1,IC50,Plasmodium falciparum [4],45 nM
same,IC50,Plasmodium falciparum [5],70 nM
same,IC50,Plasmodium falciparum [6],50 nM
CCCCCCCNCCCN1CCN(CCCNc2ccnc3cc(Cl)ccc23)CC1,IC50,Plasmodium falciparum [18],9.5 nM
same,CC50,[19],< 3100 nM
same,Selectivity Index,[20],<326
CC(C)(C)NCc1c(Nc2ccnc3ccc(Cl)cc23)cc(O)cc1-c1ccc(Cl)cc1,IC50,Plasmodium falciparum [21],0.3 ng/mL
same,IC50,Plasmodium falciparum [22],0.3 ng/mL
O=C(CN1CCCCC1)Nc1cc(COC(=O)CCCCC2=CC(=O)c3ccccc3C2=O)cc(Nc2ccnc3ccc(Cl)cc23)c1,EC50,Plasmodium falciparum [11],23 nM
O=C1CSC(c2c(Cl)cccc2Cl)N1CCNc1ccnc2cc(Cl)ccc12 (stereo not drawn),Activity,Plasmodium yoelii [1],76.08%
same,IC50,Plasmodium falciparum [2],39 nM
same,MIC,Plasmodium falciparum [2],0.55 µM
same,Survival,Plasmodium yoelii [3],14.6 days
COc1cc(NC(C)CCCN2C(=O)[C@@H](Cc3ccccc3)NC23CCCCC3)c2ncccc2c1 (stereo partly drawn),Activity,Plasmodium berghei [12],83%
same,Stability,[13],Stable
same,Activity,Plasmodium berghei [14],71
CCCCNC(=O)C[C@H](O)[C@H](CC(C)C)NC(=O)[C@@H](NC(=O)Cc1ccc(CC(=O)N[C@H](C(=O)N[C@H](CCCCN)C(=O)NCCCC(C)Nc2cc(OC)cc3cccnc23)C(C)C)cc1)[C@H](C)CC (stereo partly drawn),IC50,Plasmodium falciparum [5],4200 nM
same,IC50,Plasmodium falciparum [10],5500 nM
same,IC50,Plasmepsin II,135000 nM
COc1cc(NC(C)CCCN2C(=O)[C@@H](C(C)C)NC23CCCCC3)c2ncccc2c1 (stereo partly drawn),Activity,Plasmodium berghei [12],85%
same,Stability,[13],Stable
same,Activity,Plasmodium berghei [14],61.1
O=C(CN1CCCCC1)Nc1cc(CN2CCOCC2)cc(Nc2ccnc3ccc(Cl)cc23)c1,IC50,Plasmodium falciparum [7],9.6 nM
same,IC50,Plasmodium falciparum [8],12.8 nM
same,IC50,Plasmodium falciparum [9],12.4 nM
CCN(CC)CCCC(C)Nc1ccnc2cc(Cl)ccc12 (stereo not drawn) [CHLOROQUINE],Activity,Plasmodium yoelii [1],99.9%
same,beta t1/2,Homo sapiens,1 months
same,IC50,Plasmodium falciparum [2],106 nM
same,MIC,Plasmodium falciparum [2],0.39 µM
same,Survival,Plasmodium yoelii [3],20 days
O=C(CN1CCCCC1)Nc1cc(COC(=O)CCCCC2=CC(=O)c3cccc(O)c3C2=O)cc(Nc2ccnc3ccc(Cl)cc23)c1,EC50,Plasmodium falciparum [11],23 nM
COc1cc(NC(C)CCCN)c2ncccc2c1 (stereo not drawn) [PRIMAQUINE],Activity,Plasmodium berghei [12],28%
same,Activity,Plasmodium berghei [14],2.6
same,half-life,[23],14 days
CCCCN(CCCNc1ccnc2cc(Cl)ccc12)Cc1cc(Br)ccc1O,IC50,Plasmodium falciparum [4],45 nM
same,IC50,Plasmodium falciparum [5],45 nM
same,IC50,Plasmodium falciparum [6],45 nM
COc1cc(NC(C)CCCN2C(=O)CNC23CCCCC3)c2ncccc2c1 (stereo not drawn),Activity,Plasmodium berghei [12],25%
same,Stability,[13],Stable
same,Activity,Plasmodium berghei [14],7.4
COc1cc(NC(C)CCCN2C(=O)[C@@H](CC(C)C)NC2(C)C)c2ncccc2c1 (stereo partly drawn),Activity,Plasmodium berghei [12],30%
same,Stability,[13],Stable
same,Activity,Plasmodium berghei [14],13.7
CCCCNC(=O)C[C@H](O)[C@H](CC(C)C)NC(=O)[C@@H](NC(=O)c1ccc(Oc2ccc(C(=O)N[C@H](C(=O)N[C@H](CCCCN)C(=O)NCCCC(C)Nc3cc(OC)cc4cccnc34)C(C)C)cc2)cc1)[C@H](C)CC (stereo partly drawn),IC50,Plasmodium falciparum [5],700 nM
same,IC50,Plasmodium falciparum [10],400 nM
same,IC50,Plasmepsin II,590 nM
O=C(CN1CCCCC1)Nc1cc(COC(=O)CCCCCC2=CC(=O)c3cccc(O)c3C2=O)cc(Nc2ccnc3ccc(Cl)cc23)c1,EC50,Plasmodium falciparum [11],23 nM
